SMILES strings stand for the structures. ≈ marks a conversion by molar mass, not a printed value.

Data set [1] in a line: Apparent permeability across RRCK cells. The settings on record: dog, MDCK. The class given is ADME, cell-based, Canis lupus familiaris, MDCKII-LE.
Data set [2] in a line: Lipophilicity, log D of the compound at pH 7.4. The class given is physicochemical. To be noted: buffer.
Data set [3] deals with T1, Hexokinase-4 (Homo sapiens) (UniProt P35557).
T1 sequence (whole entry): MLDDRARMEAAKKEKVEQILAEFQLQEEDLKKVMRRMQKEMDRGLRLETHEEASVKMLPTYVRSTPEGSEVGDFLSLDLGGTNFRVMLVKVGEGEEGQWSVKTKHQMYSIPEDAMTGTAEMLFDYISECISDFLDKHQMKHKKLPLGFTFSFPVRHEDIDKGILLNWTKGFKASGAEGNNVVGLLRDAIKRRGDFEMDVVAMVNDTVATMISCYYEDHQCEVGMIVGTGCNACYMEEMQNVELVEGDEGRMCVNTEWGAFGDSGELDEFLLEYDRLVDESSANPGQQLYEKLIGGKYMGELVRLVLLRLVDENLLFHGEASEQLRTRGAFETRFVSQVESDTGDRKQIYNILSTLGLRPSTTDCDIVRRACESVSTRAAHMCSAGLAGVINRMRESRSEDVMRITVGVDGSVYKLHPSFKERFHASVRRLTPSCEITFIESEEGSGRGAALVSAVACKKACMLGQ
Kind of data set: Activation of recombinant human glucokinase assessed as increase in enzyme Vmax for glucose by G6PDH/NADP coupled assay relative to control.

Data set [4] deals with T1, Hexokinase-4 (Homo sapiens). Kind of data set: Activation of recombinant human glucokinase assessed as decrease in enzyme Km for glucose by G6PDH/NADP coupled assay relative to control.
Data set [5] has as its target T2, Hexokinase-4 (Homo sapiens, UniProt P35557).
T2 sequence (P35557 whole entry): T1 sequence (whole entry)
Put plainly: Activation of recombinant human glucokinase by G6PDH/NADP coupled assay.

Data set [6] can be described thus: Aqueous kinetic solubility of the compound at pH 6.5. Format: physicochemical. To be noted: read-out: Kinetic_solubility.
Data set [7] can be described thus: Organic anion transporter-mediated drug uptake in rat hepatocytes assessed as active uptake. The class given is ADME, cell-based, Hepatocyte.
Data set [8] in a line: Organic anion transporter-mediated drug uptake in rat hepatocytes assessed as passive uptake. Format: ADME, cell-based, Hepatocyte.
The nature of data set [9]: Organic anion transporter-mediated drug uptake in rat hepatocytes assessed as total uptake. Format: ADME, cell-based, Hepatocyte.
The target in data set [10] is T3, Hexokinase-4 (Rattus norvegicus, UniProt P17712).
T3 sequence (P17712 whole entry): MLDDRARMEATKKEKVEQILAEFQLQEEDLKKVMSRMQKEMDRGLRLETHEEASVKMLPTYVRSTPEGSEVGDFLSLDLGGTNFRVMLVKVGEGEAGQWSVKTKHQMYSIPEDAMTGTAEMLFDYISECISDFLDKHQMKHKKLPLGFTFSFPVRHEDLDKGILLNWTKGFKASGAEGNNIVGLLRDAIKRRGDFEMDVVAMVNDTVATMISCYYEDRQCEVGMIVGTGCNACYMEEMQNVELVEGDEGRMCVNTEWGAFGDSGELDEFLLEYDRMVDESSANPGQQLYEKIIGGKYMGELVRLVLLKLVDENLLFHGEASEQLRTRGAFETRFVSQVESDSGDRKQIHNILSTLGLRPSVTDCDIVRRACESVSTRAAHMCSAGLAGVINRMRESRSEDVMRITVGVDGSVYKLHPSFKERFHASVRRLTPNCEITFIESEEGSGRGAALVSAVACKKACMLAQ
Kind of data set: Activation of glucokinase in rat INS-1 cells assessed as glucose-stimulated insulin secretion. The class given is cell-based, INS1.

The subject of a further data set is Rattus norvegicus. Put plainly: Antidiabetic activity in Goto-Kakizaki rat diabetic model assessed as reduction in glucose excursion AUC at 100 mg/kg, po measured after 1 hr by oral glucose tolerance test relative to control. Also on record: scale not given: the % may be the effect or the level left.

Broadly, the Papp is the rate of passage across a membrane or cell layer, normalised by area and donor concentration. One may read the logD as lipophilicity at a set pH, counting ionised and neutral species. By EC50 is commonly meant the concentration giving half of the maximal effect. On to `O=C(O)c1ccc(NC(=O)[C@H](CC2CCOCC2)n2cnc(S(=O)(=O)C3CC3)c2)nc1`, for which the Papp in data set [1] came to 0.9 ×10⁻⁶ cm/s. In addition, in data set [2], the logD was -1.85. Further, the figures for the fold change (FC) in [3] and in data set [4] were 1.21 and 0.11, respectively. Besides, the EC50 at Hexokinase-4 [5] was 1350 nM.
Consider `O=C(O)c1ccc(NC(=O)[C@H](CC2CCCCC2)n2cnc(S(=O)(=O)C3CCC3)c2)nc1`, for which the solubility kinetic in data set [6] was determined as 198 µM (≈ 91.2 µg/mL). Further, the Papp in data set [1] was found to be 0.3 ×10⁻⁶ cm/s. The logD in data set [2] was found to be 0.15. For the same molecule, the fold change (FC) in [3] was found to be 1.25; in [4], 0.08. In addition, the EC50 at Hexokinase-4 [5] came to 227 nM.
In the case of `CC(C)c1nc(N(C)S(C)(=O)=O)nc(-c2ccc(F)cc2)c1/C=C/[C@@H](O)C[C@@H](O)CC(=O)O` [ROSUVASTATIN], the Drug uptake in data set [7] came out at 91%; in [8] it was 5.8 µL/min/mg; in [9], 158 µL/min/mg.
Take `O=C(O)c1ccc(NC(=O)[C@H](CC2CCCC2)n2cnc(S(=O)(=O)C3CC3)c2)nc1`: the EC50 at Hexokinase-4 [10] worked out at 26000 nM; on Hexokinase-4 [5], 137 nM. Further, the Papp in data set [1] was 0.6 ×10⁻⁶ cm/s. In addition, the logD in data set [2] is -0.2. The fold change (FC) in data set [3] is 1.68; in [4], 0.05.
In turn, `O=C(O)c1ccc(NC(=O)[C@H](CC2CCCC2)n2cnc(C(F)(F)F)c2)nc1` [PF-04991532] showed a logD in data set [2] of 0.68. Further, the Activity in the data set with Rattus norvegicus is recorded as 17.7%.

Values taken from ChEMBL document CHEMBL3091348, “Discovery of an intravenous hepatoselective glucokinase activator for the treatment of inpatient hyperglycemia” (Bioorg Med Chem Lett, 2013).
